# Assay results taken from US20060241174A1, “Vitamin E tocotrienols inhibition of intracellularly obligate pathogen Chlamydia and methods of use” (priority 2005, published 2006).
# Tests used:
# [1] = biological target: T1, 3-hydroxy-3-methylglutaryl coenzyme A (HMG-CoA) reductase (Homo sapiens, UniProt P04035); conditions: delta>gamma>beta>alpha tocotrienol (Tan, 2005); cited from earlier work
# T1 sequence (P04035 1-888): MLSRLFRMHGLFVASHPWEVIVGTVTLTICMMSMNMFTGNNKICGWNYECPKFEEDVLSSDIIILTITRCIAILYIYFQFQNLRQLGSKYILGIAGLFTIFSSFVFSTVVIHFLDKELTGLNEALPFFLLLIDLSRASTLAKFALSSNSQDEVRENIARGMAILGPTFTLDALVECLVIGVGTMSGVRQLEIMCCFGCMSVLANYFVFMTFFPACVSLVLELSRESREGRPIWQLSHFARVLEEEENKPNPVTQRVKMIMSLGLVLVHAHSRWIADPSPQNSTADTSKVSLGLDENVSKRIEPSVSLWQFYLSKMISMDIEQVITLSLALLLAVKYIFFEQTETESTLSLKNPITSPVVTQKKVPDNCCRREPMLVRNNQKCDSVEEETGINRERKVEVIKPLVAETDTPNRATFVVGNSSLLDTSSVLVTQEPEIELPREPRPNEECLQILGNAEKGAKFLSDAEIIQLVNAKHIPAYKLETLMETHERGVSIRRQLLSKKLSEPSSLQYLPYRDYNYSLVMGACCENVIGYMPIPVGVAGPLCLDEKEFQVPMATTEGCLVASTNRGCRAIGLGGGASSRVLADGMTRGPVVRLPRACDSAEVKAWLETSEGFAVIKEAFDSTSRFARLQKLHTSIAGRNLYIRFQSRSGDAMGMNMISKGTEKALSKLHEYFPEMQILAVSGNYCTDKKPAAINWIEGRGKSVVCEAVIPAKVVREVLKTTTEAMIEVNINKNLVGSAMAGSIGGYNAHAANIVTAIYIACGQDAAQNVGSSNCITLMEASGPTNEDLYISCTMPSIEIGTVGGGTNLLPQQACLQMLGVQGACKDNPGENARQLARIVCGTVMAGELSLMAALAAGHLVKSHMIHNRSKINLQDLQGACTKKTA
# Chlamydia = experiment: Detection of Chlamydia-infected white blood cells in hyperlipidemic patients with delta-tocotrienol supplementation; format: in vivo, human
# Method: FIG. 6 illustrates detection and quantification of Chlamydia-infected white blood cells in hyperlipidemic patients with delta-tocotrienol supplementation. Buffy coats of hyperlipidemic patients were immunostained, and for each sample, aliquots of 10,000 cells were assessed. A dotplot of a hyperlipidemic patient prior to supplementation with delta-tocotrienol is shown in the left panel, and a dotplot of a hyperlipidemic patient after 2 months of delta-tocotrienol supplementation (100 mg/day) is shown in the right panel.
# Flow Cytometry Assessment of WBC: Flow cytometry (FC) quantification of Chlamydia-infected peripheral WBC used PBS rinsed buffy coat (BC) from HP samples. The BC cells were fixed and permeabilized (1% paraformaldehyde and 1% Triton X-100, 10 min. at RT; Aldrich Chemical Company, Inc., Milwaukee, Wis.). BCs were separately incubated for 1 hour with a 1:200 dilution of rabbit anti-Chlamydia primary antibody (Biodesign International, Saco, Me.) followed by a 1 hour incubation with a 1:150 dilution of FITC-conjugated goat anti-rabbit IgG (H+L) (Jackson ImmunoResearch, West Grove, Pa.), PBS rinsed X3, and mono-dispersed by passage through a nylon mesh filter (Lab-Line Instruments Inc, Melrose Park, Ill.). Sufficient WBCs were added to obtain 10,000 cells/tube and samples were analyzed for carriage of Chlamydia-infected cells by FACScan (Becton, Dickinson and Company, Franklin Lakes, N.J.).
# Detection of Chlamydia-Infected White Blood Cells (WBC): Smears of whole blood from each 10 ml hyperlipidemic HP blood sample, average donor age 54 years, were fixed with 70% MEOH for subsequent staining. Immunostaining used a 1:125 dilution of rabbit polyclonal anti-Chlamydia EB antibody followed by a 1:125 dilution of TRITC-conjugated goat anti-rabbit antibody (H+L) (Jackson ImmunoResearch, West Grove, Pa.). Slides were incubated at room temperature for 1 hour with each diluted antibody, rinsed, mounted and sealed as described above. Digital images of optical sections through these samples were acquired with a Zeiss LSM 510 Meta Confocal System.
# In a clinical study, buffy coats from blood samples drawn both before and after delta-tocotrienol supplementation were immunostained for detection of Chlamydia-infected cells. The samples were tested for LDL levels both before and after delta-tocotrienol supplementation.
substance,measurement,setting,value
delta tocotrienol,potency of cholesterol inhibition among tocotrienol isomers,[1],most potent isomer
same,Chlamydial Infection Status after Delta-Tocotrienol Supplementation,"Chlamydia; Patient 1, status before: negative",negative
same,Chlamydial Infection Status after Delta-Tocotrienol Supplementation,"Chlamydia; Patient 2, status before: positive",negative
same,Chlamydial Infection Status after Delta-Tocotrienol Supplementation,"Chlamydia; Patient 3, status before: strong positive",negative
same,Chlamydia-infected white blood cells by flow cytometry (FIG. 6),"Chlamydia; hyperlipidemic patient, 2 months supplementation, 100 mg/day, buffy coat, 10,000 cells",reduced the granularity and amount of Chlamydia-infected cells
